According to patent US20150018301A1, “LRRK-2-Mediated Neuronal Toxicity” (THE JOHNS HOPKINS UNIVERSITY, priority 2009, published 2015):

Assays:
LRRK1 WT [1] = biological target: T1, LRRK1 WT (Homo sapiens, UniProt Q38SD2); assay: In vitro kinase assay: LRRK1-mediated MBP phosphorylation; assay type: biochemical
[2] = from literature; cited from earlier work
LRRK2 G2019S [3] = biological target: T2, LRRK2 G2019S (Homo sapiens, UniProt Q5S007, G2019S); assay: In vitro kinase assay: G2019S LRRK2 autophosphorylation; assay type: biochemical; conditions: dose-response
T2 sequence (Q5S007 whole entry G2019S): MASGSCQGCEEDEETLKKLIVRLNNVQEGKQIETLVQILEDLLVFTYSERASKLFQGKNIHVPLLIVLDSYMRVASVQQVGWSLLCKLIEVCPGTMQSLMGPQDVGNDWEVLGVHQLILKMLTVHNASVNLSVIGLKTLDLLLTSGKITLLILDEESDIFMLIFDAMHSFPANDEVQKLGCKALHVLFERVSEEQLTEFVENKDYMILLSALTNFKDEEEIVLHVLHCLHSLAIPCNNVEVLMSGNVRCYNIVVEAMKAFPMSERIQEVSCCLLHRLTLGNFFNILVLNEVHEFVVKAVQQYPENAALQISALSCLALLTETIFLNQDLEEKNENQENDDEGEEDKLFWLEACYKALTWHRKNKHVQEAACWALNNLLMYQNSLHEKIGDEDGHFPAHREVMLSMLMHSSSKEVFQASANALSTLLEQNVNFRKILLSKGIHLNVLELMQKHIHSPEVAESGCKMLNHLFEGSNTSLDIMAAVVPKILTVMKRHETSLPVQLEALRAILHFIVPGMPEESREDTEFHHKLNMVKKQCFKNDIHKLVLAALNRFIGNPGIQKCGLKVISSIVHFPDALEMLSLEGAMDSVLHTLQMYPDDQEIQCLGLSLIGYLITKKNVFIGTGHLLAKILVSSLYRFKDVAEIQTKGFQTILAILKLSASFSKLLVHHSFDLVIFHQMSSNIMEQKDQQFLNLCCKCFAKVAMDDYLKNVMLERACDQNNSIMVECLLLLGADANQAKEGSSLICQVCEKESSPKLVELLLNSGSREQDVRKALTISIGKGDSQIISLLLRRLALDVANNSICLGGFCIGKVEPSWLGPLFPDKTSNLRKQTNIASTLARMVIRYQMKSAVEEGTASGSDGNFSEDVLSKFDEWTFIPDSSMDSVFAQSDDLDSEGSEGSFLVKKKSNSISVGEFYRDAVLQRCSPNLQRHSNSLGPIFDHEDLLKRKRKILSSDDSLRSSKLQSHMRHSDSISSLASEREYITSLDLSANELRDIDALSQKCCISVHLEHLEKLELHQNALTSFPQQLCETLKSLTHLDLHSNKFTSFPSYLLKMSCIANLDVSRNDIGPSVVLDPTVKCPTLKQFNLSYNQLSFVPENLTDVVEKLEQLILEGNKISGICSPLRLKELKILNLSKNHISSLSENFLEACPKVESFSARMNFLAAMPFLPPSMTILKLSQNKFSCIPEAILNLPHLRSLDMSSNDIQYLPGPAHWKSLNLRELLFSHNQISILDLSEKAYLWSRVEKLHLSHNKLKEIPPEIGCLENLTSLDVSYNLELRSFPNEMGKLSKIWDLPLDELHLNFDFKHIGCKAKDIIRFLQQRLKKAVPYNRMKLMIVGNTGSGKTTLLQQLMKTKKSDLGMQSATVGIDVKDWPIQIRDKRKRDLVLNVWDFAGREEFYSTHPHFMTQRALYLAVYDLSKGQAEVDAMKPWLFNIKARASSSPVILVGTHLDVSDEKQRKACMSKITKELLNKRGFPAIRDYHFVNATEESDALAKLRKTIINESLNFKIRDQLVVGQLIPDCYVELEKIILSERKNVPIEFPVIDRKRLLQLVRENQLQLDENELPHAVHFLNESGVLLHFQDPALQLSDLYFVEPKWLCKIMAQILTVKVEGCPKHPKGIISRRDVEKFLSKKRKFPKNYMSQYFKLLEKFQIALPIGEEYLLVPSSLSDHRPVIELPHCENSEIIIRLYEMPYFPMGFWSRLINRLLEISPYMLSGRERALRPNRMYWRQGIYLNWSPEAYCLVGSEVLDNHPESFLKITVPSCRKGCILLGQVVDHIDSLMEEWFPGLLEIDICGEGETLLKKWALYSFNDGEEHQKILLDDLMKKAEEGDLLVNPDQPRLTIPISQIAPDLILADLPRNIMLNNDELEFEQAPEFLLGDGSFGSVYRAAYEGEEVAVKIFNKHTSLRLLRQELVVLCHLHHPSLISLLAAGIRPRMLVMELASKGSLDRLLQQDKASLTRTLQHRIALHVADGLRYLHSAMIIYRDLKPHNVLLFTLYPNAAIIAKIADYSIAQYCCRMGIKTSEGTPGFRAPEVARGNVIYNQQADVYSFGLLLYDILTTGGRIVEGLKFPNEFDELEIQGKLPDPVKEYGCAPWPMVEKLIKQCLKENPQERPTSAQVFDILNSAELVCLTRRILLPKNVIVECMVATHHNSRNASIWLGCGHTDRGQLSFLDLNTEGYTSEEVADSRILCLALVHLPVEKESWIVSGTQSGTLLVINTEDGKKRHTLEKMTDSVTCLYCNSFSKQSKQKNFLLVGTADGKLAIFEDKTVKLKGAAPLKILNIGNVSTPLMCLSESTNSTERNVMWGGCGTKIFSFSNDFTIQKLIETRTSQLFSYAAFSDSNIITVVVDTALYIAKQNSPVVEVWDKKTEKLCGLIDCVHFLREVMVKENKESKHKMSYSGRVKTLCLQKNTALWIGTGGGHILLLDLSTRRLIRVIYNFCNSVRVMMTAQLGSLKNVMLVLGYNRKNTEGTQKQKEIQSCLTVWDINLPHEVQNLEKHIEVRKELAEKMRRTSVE
Protocol: (§1) Transfection was performed by using Fugene HD reagent (Roche Applied Science) according to the manufacturer's instruction. For purification of recombinant LRRK1 and LRRK2 proteins, ACTA Purifier (GE Healthcare) FPLC system was used.
(§2) Resulting lysates were rotated at 4° C. for 30 min followed by centrifugation at 20,000×g for 15 min. The supernatants were injected into a GSTrap FF column pre-equilibrated with PBS at 0.5. mL/min flow after filtration using a 0.2 μm syringe filter (Corning). The bound proteins were eluted with buffer containing 10 mM GSH (Sigma), 150 mM NaCl, and 50 mM Tris-HCl (pH 8.0).
(§3) The in vitro kinase assay was performed as previously described. […] Recombinant LRRK2 and MBP or CST-4E-BP1 were combined before the kinase reaction. LRRK2 autophosphorylation is LRRK2 itself phosphorylation and MBP or GST-4E-BP1 phosphorylation is induced by LRRK2. After the kinase reaction, combined LRRK2 and MBP or GST-4E-BP1 were loaded on SDSPAGE and phosphorylated LRRK2 and MBP or GST-4E-BP1 could be detected separately an a single gel. Recombinant proteins and inhibitors were incubated at 30° C. in kinase assay buffer containing 20 mM Hepes (pH 7.4), 5 mM EGTA, and 20 mM β-glycerol phosphate. 0.5 μg MBP (Upstate) or 0.5 μg GST-4B-BP1, 50 μM ATP (Sigma), 20 mM MgCl2, and 1 μCi [γ-32P] ATP (PerkinElmer) was added after 5 min. The reaction was performed at 30° C. to reduce non-specific 32P incorporation for 15 min and terminated by the addition of 5×Laemmili sample buffer. […] Gels were stained by coomassie brilliant blue after fixation with 10% acetic acid and 40% methanol and then exposed to a Phosphoimager. Data were analyzed by ImageQuant 6.0 software.
(§4) To calculate the IC50 value, a dose-response curve was constructed and non-linear regression analysis using the equation for a sigmoid plot.

LRRK1 WT [4] = biological target: T1, LRRK1 WT; assay: In vitro kinase assay: LRRK1 autophosphorylation; assay type: biochemical
G2019S LRRK2 = G2019S LRRK2 (Homo sapiens, UniProt Q5S007, G2019S); assay: In vitro kinase assay: LRRK2-mediated phosphorylation of 4E-BP1; assay type: biochemical
Sequence of G2019S LRRK2 (Q5S007 whole entry G2019S): as above
Protocol: The GST-4E-BP1 expressing vector was generated using the Invitrogen Gateway LR Clonase System. Briefly, an entry clone containing the 4E-BP1 sequence was reacted with the destination vector, pDEST-15 in the presence of the LR clonase mixture. After the clonase reaction, the mixture was transformed into One Shot BL21 chemically competent E. coli. The transformed cells were grown on ampicillin containing LB agar plate for one day at 37° C. Colonies containing GST-4E-BP1 were isolated. For protein induction, 100 μM IPTG was added to 100 mL culture and incubated for 3 h at 30° C. After IPTG incubation, cells were collected by centrifugation at 3,000×g for 15 min. The pellet was lysed with sonication in the presence of lysis butter containing 0.5% TX-100, 50 mM Tris-HCl (pH 8.0), 100 mM NaCl, 0.5 mM EGTA, 5 mM MgCl2, 2 mM DTT, and complete protease inhibitors. The lysate was centrifugated at 15,000×g for 15 min and the supernatant was incubated with GSH-sepharose beads for 2 h at 4° C. After incubation, the beads were washed with PBS containing an additional 150 mM NaCl and 0.1% TX-100 three times. The protein was eluted with elution buffer containing Hepes (pH 8.0), 150 mM NaCl, 30% glycerol, and 30 mM glutathione. The eluted proteins were stored at −80° C.
The in vitro kinase assay was performed as previously described. West, A. B. et al. Parkinson's disease-associated mutations in leucine-rich repeat kinase 2 augment kinase activity. Proc Natl Acad Sci USA 102, 16842-16847 (2005). Recombinant LRRK2 and MBP or CST-4E-BP1 were combined before the kinase reaction. LRRK2 autophosphorylation is LRRK2 itself phosphorylation and MBP or GST-4E-BP1 phosphorylation is induced by LRRK2. After the kinase reaction, combined LRRK2 and MBP or GST-4E-BP1 were loaded on SDSPAGE and phosphorylated LRRK2 and MBP or GST-4E-BP1 could be detected separately an a single gel. Recombinant proteins and inhibitors were incubated at 30° C. in kinase assay buffer containing 20 mM Hepes (pH 7.4), 5 mM EGTA, and 20 mM β-glycerol phosphate. 0.5 μg MBP (Upstate) or 0.5 μg GST-4B-BP1, 50 μM ATP (Sigma), 20 mM MgCl2, and 1 μCi [γ-32P] ATP (PerkinElmer) was added after 5 min. The reaction was performed at 30° C. to reduce non-specific 32P incorporation for 15 min and terminated by the addition of 5×Laemmili sample buffer. The reactions were then heated at 70° C. for 10 min and resolved by 12% SDS-PAGE. Gels were stained by coomassie brilliant blue after fixation with 10% acetic acid and 40% methanol and then exposed to a Phosphoimager. Data were analyzed by ImageQuant 6.0 software.

[5] = system: rat primary cortical neuronal cultures transfected with G2019S LRRK2; assay: LRRK2-induced neuronal toxicity in primary cortical neuronal cultures (neurite shortening, TUNEL); assay type: cell-based; conditions: 0.5 μM
Protocol: Representative photomicrographs of each experimental group. LRRK2 and eGFP constructs were combined in a molar ratio of 10:1, respectively, and transfected by using of Lipofectamine 2000 (Invitrogen) at DIV (day in vitro) 14 into rat primary cortical neuronal cultures. Compounds (0.5 μM) were administrated at the time of transfection and continued until toxicity assessments. On DIV 16, images were collected on a Zeiss Automatic stage with Axiovision 6.0. (a) Low magnified photomicrographs; (b and c) High magnified photomicrographs. Scale bar=50 μm (a) and 10 μm (b and c);
Primary cortical neuronal cultures were prepared from gestational day 15 fetal rats as previously described. Gonzalez-Zulueta, M., et al. Manganese superoxide dismutase protects nNOS neurons from NMDA and nitric oxide-mediated neurotoxicity. J Neurosci 18, 2040-2055 (1998). All procedures used in this study were approved by the Johns Hopkins Medical Institute Animal Care Committee. Cell viability assays and DNA fragmentation (TUNEL assay) were performed as previously described. Smith, W. W., et al. Kinase activity of mutant LRRK2 mediates neuronal toxicity. Nat Neurosci 9, 1231-1233 (2006); West, A. B., et al. Parkinson's disease-associated mutations in LRRK2 link enhanced GTP-binding and kinase activities to neuronal toxicity. Hum Mol Genet 16, 223-232 (2007). The cortex was dissected, incubated for 15 min in 0.027% trypsin, and then transferred to modified Eagle's medium (MEM)/10% horse serum/10% fetal bovine serum/2 mM glutamine followed by trituration. Dissociated cells were plated at a density of 3-4×10^5 cells per well in polyornithine-coated plates. After 4 days the cells were treated with 10 μg of 5-fluoro-2′-deoxyuridine to prevent proliferation of nonneuronal cells. Cells were maintained in MEM/5% horse serum/2 mM glutamine in 8% CO2 incubator. The medium was changed twice weekly. For assessment of LRRK2-mediated neuronal injury, LRRK2 and eGFP constructs were combined in a molar ratio of 10:1, respectively, and transfected into neurons with Lipofectamine 2000 (Invitrogen) at DIV (day in vitro) 14. On DIV 16, images were collected on a Zeiss Automatic stage with Axiovision 6.0. Viable neurons were defined as having at least one smooth extension (neurite) with twice the length of the cell body. The percentage of eGFP-positive injured neurons in each experimental group relative to those neurons transfected with eGFP was calculated.

LRRK2 WT [6] = biological target: T3, LRRK2 WT (Homo sapiens, UniProt Q5S007); assay: In vitro kinase assay: LRRK2 autophosphorylation; assay type: biochemical; conditions: dose-response
T3 sequence (Q5S007 whole entry): as the sequence (Q5S007 whole entry G2019S) above, with S2019G counted along it

LRRK2 G2019S [7] = biological target: T2, LRRK2 G2019S; assay: In vitro kinase assay: G2019S LRRK2-mediated MBP phosphorylation; assay type: biochemical; conditions: dose-response
Protocol: as §1, §2, §3, §4

LRRK2 WT [8] = biological target: T3, LRRK2 WT; assay: In vitro kinase assay: LRRK2-mediated MBP phosphorylation; assay type: biochemical; conditions: dose-response

T1 sequence (Q38SD2 whole entry): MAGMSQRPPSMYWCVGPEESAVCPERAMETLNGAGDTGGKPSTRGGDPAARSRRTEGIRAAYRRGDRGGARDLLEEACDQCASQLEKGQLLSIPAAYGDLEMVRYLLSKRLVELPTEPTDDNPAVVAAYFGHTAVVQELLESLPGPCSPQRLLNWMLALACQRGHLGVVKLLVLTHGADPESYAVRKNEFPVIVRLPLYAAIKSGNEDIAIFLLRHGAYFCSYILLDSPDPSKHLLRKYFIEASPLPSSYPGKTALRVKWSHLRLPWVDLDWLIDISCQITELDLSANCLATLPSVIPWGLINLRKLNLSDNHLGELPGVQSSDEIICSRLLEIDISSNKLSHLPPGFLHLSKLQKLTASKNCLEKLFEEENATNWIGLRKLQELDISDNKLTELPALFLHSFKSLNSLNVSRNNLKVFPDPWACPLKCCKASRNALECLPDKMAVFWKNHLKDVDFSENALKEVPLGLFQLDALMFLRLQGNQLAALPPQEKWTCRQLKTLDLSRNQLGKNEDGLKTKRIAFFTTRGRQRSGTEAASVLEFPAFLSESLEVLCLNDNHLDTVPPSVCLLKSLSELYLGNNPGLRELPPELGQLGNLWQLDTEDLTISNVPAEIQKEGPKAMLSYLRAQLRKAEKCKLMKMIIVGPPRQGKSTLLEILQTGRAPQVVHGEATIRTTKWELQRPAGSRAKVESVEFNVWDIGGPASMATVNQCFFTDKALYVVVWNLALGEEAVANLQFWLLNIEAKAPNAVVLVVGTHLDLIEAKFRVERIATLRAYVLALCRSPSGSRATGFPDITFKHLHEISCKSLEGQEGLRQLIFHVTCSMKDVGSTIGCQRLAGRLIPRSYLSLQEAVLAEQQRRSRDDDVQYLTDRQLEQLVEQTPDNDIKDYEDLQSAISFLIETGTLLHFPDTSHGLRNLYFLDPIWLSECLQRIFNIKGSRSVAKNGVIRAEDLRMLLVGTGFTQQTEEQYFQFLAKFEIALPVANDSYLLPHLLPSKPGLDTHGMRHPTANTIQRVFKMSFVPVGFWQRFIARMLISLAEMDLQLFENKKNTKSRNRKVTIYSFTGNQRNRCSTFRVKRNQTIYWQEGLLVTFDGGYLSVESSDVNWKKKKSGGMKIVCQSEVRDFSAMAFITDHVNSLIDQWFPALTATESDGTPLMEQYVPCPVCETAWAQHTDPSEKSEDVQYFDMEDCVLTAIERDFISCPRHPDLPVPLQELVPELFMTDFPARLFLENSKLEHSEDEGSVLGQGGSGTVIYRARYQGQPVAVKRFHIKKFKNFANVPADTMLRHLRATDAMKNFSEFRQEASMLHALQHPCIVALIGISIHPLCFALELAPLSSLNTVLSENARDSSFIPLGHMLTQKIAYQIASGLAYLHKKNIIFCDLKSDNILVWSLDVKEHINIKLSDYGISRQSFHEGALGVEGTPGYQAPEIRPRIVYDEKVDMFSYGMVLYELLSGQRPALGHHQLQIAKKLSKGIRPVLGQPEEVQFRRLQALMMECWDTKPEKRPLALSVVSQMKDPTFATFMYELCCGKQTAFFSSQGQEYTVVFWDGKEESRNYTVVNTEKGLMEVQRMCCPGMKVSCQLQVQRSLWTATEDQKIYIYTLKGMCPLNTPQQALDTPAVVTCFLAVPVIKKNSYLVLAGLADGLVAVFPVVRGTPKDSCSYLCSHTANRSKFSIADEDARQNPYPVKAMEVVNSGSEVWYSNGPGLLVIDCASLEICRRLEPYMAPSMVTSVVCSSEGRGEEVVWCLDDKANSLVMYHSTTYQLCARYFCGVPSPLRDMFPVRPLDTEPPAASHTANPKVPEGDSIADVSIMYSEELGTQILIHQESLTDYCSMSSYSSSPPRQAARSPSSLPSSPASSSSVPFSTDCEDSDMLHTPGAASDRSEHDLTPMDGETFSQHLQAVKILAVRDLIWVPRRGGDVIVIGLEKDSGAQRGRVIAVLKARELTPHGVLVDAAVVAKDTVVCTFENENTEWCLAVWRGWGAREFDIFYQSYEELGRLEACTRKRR

effect on LRRK1 MBP phosphorylation (LRRK1 WT [1]): no effect
effect on G2019S LRRK2 autophosphorylation (LRRK2 G2019S [3]): no effect
effect on LRRK1 autophosphorylation (LRRK1 WT [4]): no effect
LRRK2-mediated phosphorylation of 4E-BP1 (G2019S LRRK2): did not inhibit
effect on WT LRRK2 autophosphorylation (LRRK2 WT [6]): no effect
effect on G2019S LRRK2 MBP phosphorylation (LRRK2 G2019S [7]): no effect
effect on WT LRRK2 MBP phosphorylation (LRRK2 WT [8]): no effect
Compound: O=C1Nc2ccccc2/C1=C1/Nc2ccccc2C1=O [Inhibitor 69, Indirubin]
crossing of the blood-brain barrier [2]: known to cross the blood-brain barrier
G2019S LRRK2 toxicity [5]: failed to inhibit
